Data published in patent US11124516B2, “Pyrrolo[1,2-A]pyrimidinyl carboxamide compounds and their use in the treatment of medical disorders” (Bial—Biotech Investments, Inc., priority 2016, dated 2021).
≈ marks a conversion by molar mass, not a printed value.

How the values were obtained:
[1] = target: T1, glucocerebrosidase (Gcase) (Homo sapiens, UniProt P04062); assay: Glucocerebrosidase (Gcase) activation assay, 4-methylumbelliferyl-beta-D-glucopyranoside substrate, fluorescence; format: biochemical; details: 10 nM GCase, 100 nM saposin C; for activation at 0.1 µM / activation at 1 µM: 0.25 h; for activation at 0.1 µM: pH 4.7, test compound at 0.1 μM, read-out: Percent Gcase Activation 0.1 μM Test Compound; for activation at 1 µM: pH 4.7, test compound at 1.0 μM, read-out: Percent Gcase Activation 1 μM Test Compound; for Percent Gcase Activation 0.1 μM Test Compound: test compound at 0.1 μM; for Percent Gcase Activation 0.1 μM Test Compound / Percent Gcase Activation 1 μM Test Compound: pH 4.7; for Percent Gcase Activation 1 μM Test Compound: test compound at 1.0 μM
T1 sequence (P04062 40-536): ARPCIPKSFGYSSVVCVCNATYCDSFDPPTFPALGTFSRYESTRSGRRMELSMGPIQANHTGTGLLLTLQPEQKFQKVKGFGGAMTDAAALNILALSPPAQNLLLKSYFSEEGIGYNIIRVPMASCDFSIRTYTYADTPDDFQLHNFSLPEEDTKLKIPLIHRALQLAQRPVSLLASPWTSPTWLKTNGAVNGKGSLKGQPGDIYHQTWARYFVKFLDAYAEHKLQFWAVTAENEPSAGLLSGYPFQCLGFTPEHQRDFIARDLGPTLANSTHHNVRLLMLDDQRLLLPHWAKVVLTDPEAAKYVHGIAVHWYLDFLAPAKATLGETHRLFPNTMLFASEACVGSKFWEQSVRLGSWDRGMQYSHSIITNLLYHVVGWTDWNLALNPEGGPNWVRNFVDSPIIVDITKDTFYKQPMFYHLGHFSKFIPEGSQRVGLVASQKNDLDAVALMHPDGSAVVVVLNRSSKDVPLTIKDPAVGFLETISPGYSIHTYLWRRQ
Procedure: The ability of exemplary compounds to activate glucocerebrosidase (Gcase) was measured.
A 484 μL aliquot of a 1.0 mg/mL solution of phosphatidylserine (PS) (Sigma P7769) in chloroform was evaporated under a stream of nitrogen for 1 hour. The lipid film was dissolved over 4 minutes of vigorous vortexing in 40 mL of 176 mM K2HPO4/50 mM citric acid (pH 4.7) containing 7.5 μL of triton X-100, resulting in a mixed micellar preparation with a composition of 0.32 mM triton and 0.37 mol % PS. 4-Methylumbelliferyl-beta-D-glucopyranoside (ACROS-337025000) was dissolved in the micellar solution to a final concentration of 2 mM for use as the reaction substrate.
Test compounds were diluted to the desired concentrations with dimethylsulfoxide (DMSO) from 10 mM stocks, and 0.41 μL of the DMSO compound mixture was added to 100 μL of micellar solution containing 10 nM GCase and 100 nM saposin C (Enzo ALX-201-262-C050). Pre-incubation was allowed to occur for 30 minutes at room temperature, after which the reaction was initiated by combining 25 μL of substrate solution with 25 μL of compound/GCase/saposin mixture. The reaction proceeded for 15 minutes at room temperature and was stopped by adding 150 μL of 1M glycine, pH 12.5. The endpoint of the reaction was monitored by measuring fluorescence intensity (excitation: 365 nm; emission: 440 nm) on a SpectraMax i3 instrument (Molecular Devices). Test compounds were screened at 1.0 and 0.1 μM final concentration, and subsequent 8-point dose response curves were obtained using 3-fold dilutions from a maximum final concentration of 5 μM.
For experiments in which the test compound was used at a concentration of 1.0 μM, the symbol “+” indicates less than 30% Gcase activation; the symbol “++” indicates Gcase activation in the range of 30% up to 60%; and the symbol “+++” indicates Gcase activation greater than 60%. For experiments in which the test compound was used at a concentration of 0.1 μM, the symbol “*” indicates less than 10% Gcase activation; the symbol “**” indicates Gcase activation in the range of 10% up to 20%; and the symbol “***” indicates greater than 20% Gcase activation.

[2] = Compound solubility in water; format: physicochemical

SMILES	activation at 0.1 µM [1] [%]	activation at 1 µM [1] [%]	solubility [2] [µg/mL]	Percent Gcase Activation 0.1 μM Test Compound [1]	Percent Gcase Activation 1 μM Test Compound [1]	Compound Solubility in Water [2] [µg/mL]
Cc1cc(-c2cccnc2)nc2c(C(=O)N[C@H]3CC[C@H](OC(C)(C)C)CC3)ccn12 [III-56]	10 to 20	> 60	11.6 (≈ 28.5 µM)	–	–	–
CCCO[C@H]1CC[C@H](NC(=O)c2ccn3c(C)cc(-c4cccnc4)nc23)CC1 [III-57]	10 to 20	> 60	14.9 (≈ 38 µM)	–	–	–
Cc1cc(-c2cccnc2)nc2c(C(=O)N[C@H]3CC[C@H](OCC(C)C)CC3)ccn12 [III-58]	> 20	> 60	1.9 (≈ 4.67 µM)	–	–	–
CCCCO[C@H]1CC[C@H](NC(=O)c2ccn3c(C)cc(-c4cccnc4)nc23)CC1 [III-59]	> 20	> 60	1.9 (≈ 4.67 µM)	–	–	–
Cc1cc(-c2cccnc2)nc2c(C(=O)N[C@H]3CC[C@H](OCC(C)(C)C)CC3)ccn12 [III-60]	> 20	> 60	1.3 (≈ 3.09 µM)	–	–	–
C#Cc1ccc(NC(=O)c2ccn3c(C)cc(-c4cccnc4)nc23)cc1 [III-61]	> 20	> 60	1.2 (≈ 3.41 µM)	–	–	–
Cc1cc(C)n2ccc(C(=O)NC(C)C3CCCCC3)c2n1 (stereo not drawn) [III-62]	> 20	> 60	5.1 (≈ 17 µM)	–	–	–
Cc1cc(C)n2ccc(C(=O)NC(C)C3CCCCC3)c2n1 (stereo not drawn) [III-63]	–	–	–	*** (greater than 20% Gcase activation)	+++ (Gcase activation greater than 60%)	4.2
Cc1cc(C)n2ccc(C(=O)N[C@@H](C)C3CC3)c2n1 [III-64]	> 20	> 60	21.7 (≈ 84.3 µM)	–	–	–
Cc1cc(C)n2ccc(C(=O)N[C@H](C)C3CC3)c2n1 [III-65]	< 10	30 to 60	20.7 (≈ 80.4 µM)	–	–	–
Cc1nc2c(C(=O)N[C@H]3CC[C@H](OC(C)(C)C)CC3)ccn2c2c1CCC2 [III-70]	< 10	< 30	1.5 (≈ 4.06 µM)	–	–	–
Cc1c2c(nc3c(C(=O)N[C@H]4CC[C@H](OC(C)(C)C)CC4)ccn13)CCC2 [III-71]	< 10	30 to 60	8 (≈ 21.7 µM)	–	–	–
Cc1nc2c(C(=O)NC(C)(C)C3CC3)ccn2c2c1CCC2 [III-72]	< 10	> 60	1.5 (≈ 5.04 µM)	–	–	–
Cc1c2c(nc3c(C(=O)NC(C)(C)C4CC4)ccn13)CCC2 [III-73]	10 to 20	> 60	0.9 (≈ 3.03 µM)	–	–	–
Cc1cc(C)n2ccc(C(=O)NC(=O)C3CC3)c2n1 [III-74]	< 10	< 30	24.8 (≈ 96.4 µM)	–	–	–
COCc1cc(C)n2ccc(C(=O)N[C@H]3CC[C@H](OCC(C)(C)C)CC3)c2n1 [IV-1]	> 20	> 60	2.5 (≈ 6.45 µM)	–	–	–
COCc1cc(C)nc2c(C(=O)N[C@H]3CC[C@H](OCC(C)(C)C)CC3)ccn12 [IV-2]	> 20	> 60	4.2 (≈ 10.8 µM)	–	–	–
COCc1cc(C)nc2c(C(=O)N[C@H]3CC[C@H](OCC(C)C)CC3)ccn12 [IV-3]	> 20	> 60	15.9 (≈ 42.6 µM)	–	–	–
COCc1cc(C)n2ccc(C(=O)N[C@H]3CC[C@H](OCC(C)C)CC3)c2n1 [IV-4]	10 to 20	> 60	16.9 (≈ 45.2 µM)	–	–	–
CCc1cc(C)nc2c(C(=O)N[C@H]3CC[C@H](OC(C)(C)C)CC3)ccn12 [IV-5]	10 to 20	> 60	8.1 (≈ 22.7 µM)	–	–	–
CCc1cc(C)n2ccc(C(=O)N[C@H]3CC[C@H](OC(C)(C)C)CC3)c2n1 [IV-6]	10 to 20	> 60	7.9 (≈ 22.1 µM)	–	–	–

SMILES	activation at 0.1 µM [1] [%]	activation at 1 µM [1] [%]	solubility [2] [µg/mL]	Percent Gcase Activation 0.1 μM Test Compound [1]	Percent Gcase Activation 1 μM Test Compound [1]	Compound Solubility in Water [2] [µg/mL]
Cc1cc(-c2cccc(C(N)=O)c2)nc2c(C(=O)NC(C3CC3)C(F)(F)F)ccn12 (stereo not drawn) [IV-7]	> 20	> 60	0.4 (≈ 0.961 µM)	–	–	–
Cc1cc(C(F)F)n2ccc(C(=O)N[C@H]3CC[C@H](OC(C)(C)C)CC3)c2n1 [IV-8]	10 to 20	> 60	0.9 (≈ 2.37 µM)	–	–	–
Cc1cc(C(F)F)n2ccc(C(=O)N[C@H]3CC[C@H](OCC(C)C)CC3)c2n1 [IV-9]	> 20	> 60	1.5 (≈ 3.95 µM)	–	–	–
Cc1cc(C(F)F)n2ccc(C(=O)N[C@H]3CC[C@H](OCC(C)(C)C)CC3)c2n1 [IV-10]	> 20	> 60	0.3 (≈ 0.762 µM)	–	–	–
CCCO[C@H]1CC[C@H](NC(=O)c2ccn3c(C(F)F)cc(C)nc23)CC1 [IV-11]	> 20	> 60	9 (≈ 24.6 µM)	–	–	–
CCCO[C@H]1CC[C@H](NC(=O)c2ccn3c(C)cc(C(F)F)nc23)CC1 [IV-12]	10 to 20	> 60	18.5 (≈ 50.6 µM)	–	–	–
Cc1cc(C(F)F)nc2c(C(=O)N[C@H]3CC[C@H](OCC(C)C)CC3)ccn12 [IV-13]	> 20	> 60	5 (≈ 13.2 µM)	–	–	–
Cc1cc(C(F)F)nc2c(C(=O)N[C@H]3CC[C@H](OCC(C)(C)C)CC3)ccn12 [IV-14]	> 20	> 60	0.8 (≈ 2.03 µM)	–	–	–
CCCCO[C@H]1CC[C@H](NC(=O)c2ccn3c(C)cc(N4CCOCC4)nc23)CC1 [IV-15]	10 to 20	> 60	8.4 (≈ 20.3 µM)	–	–	–
Cc1cc(C)n2ccc(C(=O)NC(C3CC3)C(F)(F)F)c2n1 (stereo not drawn) [IV-16]	> 20	> 60	3.1 (≈ 9.96 µM)	–	–	–
Cc1cc(C)n2c(F)cc(C(=O)N[C@@H](C)C3CC3)c2n1 [IV-17]	10 to 20	> 60	21.6 (≈ 78.5 µM)	–	–	–
Cc1cc(C)n2ccc(C(=O)NC(C)(C)c3ccc4c(c3)OCCO4)c2n1 [IV-19]	> 20	> 60	2.1 (≈ 5.75 µM)	–	–	–
Cc1cc(C)n2ccc(C(=O)N[C@@H](C)c3ccccc3F)c2n1 [IV-20]	> 20	> 60	2.5 (≈ 8.03 µM)	–	–	–
Cc1cc(C)n2ccc(C(=O)N[C@@H](C)c3ccc(F)cc3)c2n1 [IV-21]	> 20	> 60	3.3 (≈ 10.6 µM)	–	–	–
Cc1cc(C)n2ccc(C(=O)NC(C)(C)c3ccccc3Cl)c2n1 [IV-22]	10 to 20	> 60	1.3 (≈ 3.8 µM)	–	–	–
Cc1cc(C)n2ccc(C(=O)NC(C)c3cccc4ccccc34)c2n1 (stereo not drawn) [IV-23]	10 to 20	> 60	–	–	–	0.2
COc1ccc([C@@H](C)NC(=O)c2ccn3c(C)cc(C)nc23)cc1 [IV-24]	< 10	> 60	5.3 (≈ 16.4 µM)	–	–	–
Cc1cc(C)n2ccc(C(=O)N[C@H](C)c3ccc(Cl)cc3)c2n1 [IV-25]	> 20	> 60	0.6 (≈ 1.83 µM)	–	–	–
Cc1cc(C)n2ccc(C(=O)NC(C)c3cccc4ccccc34)c2n1 (stereo not drawn) [IV-26]	–	–	–	** (Gcase activation in the range of 10% up to 20%)	+++ (Gcase activation greater than 60%)	0.2
COc1ccccc1[C@H](C)NC(=O)c1ccn2c(C)cc(C)nc12 [IV-27]	> 20	> 60	3 (≈ 9.28 µM)	–	–	–
Cc1cc(C)n2ccc(C(=O)N[C@@H](C)c3cccc(Cl)c3)c2n1 [IV-28]	10 to 20	> 60	0.7 (≈ 2.14 µM)	–	–	–
